Measured values published in patent publication US12594268B2, “Methods of treating Fabry disease in patients having a mutation in the GLA gene” (Amicus Therapeutics, Inc., priority 2018, dated 2026).

Target: T1, α-Gal A mutant form D33H (Homo sapiens, UniProt P06280, D33H)
T1 construct: expressed in transfected cells; host or cells: HEK-293
T1 sequence (P06280 32-429 D33H): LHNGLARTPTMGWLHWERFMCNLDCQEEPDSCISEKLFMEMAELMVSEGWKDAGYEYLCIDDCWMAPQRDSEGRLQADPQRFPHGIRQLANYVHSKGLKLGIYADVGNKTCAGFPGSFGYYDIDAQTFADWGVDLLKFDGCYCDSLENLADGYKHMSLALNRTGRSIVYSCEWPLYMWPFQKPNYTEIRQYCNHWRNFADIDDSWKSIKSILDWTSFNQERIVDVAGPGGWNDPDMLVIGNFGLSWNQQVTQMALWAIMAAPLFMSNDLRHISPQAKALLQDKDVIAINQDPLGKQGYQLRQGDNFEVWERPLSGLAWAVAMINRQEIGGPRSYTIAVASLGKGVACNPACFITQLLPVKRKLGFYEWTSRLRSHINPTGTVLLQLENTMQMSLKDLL
Assay: α-Gal A activity in lysates of transfected HEK-293 cells, D33H
Format: cell-based
Procedure: Baseline and 10 μM migalastat α-Gal A activity: Differences in the α-Gal A activity between lysates incubated in the absence and presence of 10 μM migalastat were determined using a one-tailed, Mann Whitney U test; an increase at 10 μM migalastat with a p<0.05 was considered significant.
10 μM migalastat α-Gal A activity (% WT)=(α-Gal A activity in mutant transfected cell lysates incubated with 10 μM migalastat÷α-Gal A activity in wild-type transfected cell lysates without migalastat)*100.
Absolute increase (% WT)=is the 10 μM migalastat α-Gal A activity (% WT) minus the baseline α-Gal A activity (% WT).
Relative increase is the 10 μM migalastat α-Gal A activity in mutant transfected cell lysates÷baseline α-Gal A activity in mutant transfected cell lysates incubated without migalastat.

SMILES: OC[C@H]1NC[C@H](O)[C@@H](O)[C@H]1O [migalastat, (2R,3S,4R,5S)-2-(hydroxymethyl) piperdine-3,4,5-triol]
- Absolute increase (% WT) (10 μM migalastat minus baseline): 32.7 % WT
- Relative increase (10 μM migalastat ÷ baseline activity): 1.93
- 10 nM migalastat α-Gal A activity (HEK-293 lysates, 10 nM migalastat as printed, 5 days, mean ± SEM): 24908 ± 1775 nmol/mg/h
- 10 μM migalastat α-Gal A activity (% WT) (HEK-293 lysates, 10 μM migalastat, 5 days, mean ± SEM): 68.8 ± 4.3 % WT
